Marks after values point to notes of the source that are not given here.
Tests used:
[1] = test system: "in vitro" rumen fluid culture; assay: Biogas production in "in vitro" rumen fluid culture (pressure meter); type: cell-based, calves; parameters: Average biogas production / Cumulative biogas production / Biogas production: unit not given here; details: Exp 1; for Average biogas production: average over doses and incubation times
Description: (§1) Two trials following an identical experimental protocol were designed to study the effect of different pure flavonoids on rumen fermentation using a simulatory “in vitro” system based on the experimental protocol described by Theodorou M K et al. (1994) Animal Feed Science and Technology, 48 (3), p. 185-197; Mauricio, R. M., et al. (1999) Animal Feed Science and Technology 79, 321-330.
Gas production was determined from a semi-automatic pressure meter, the relationship between pressure levels and the produced gas volume was previously calculated.
(§2) Rumen cannulated calves which received a mixed ration mainly composed of concentrate (90:10) were used as rumen fluid donor; feed composition is presented in Table 1. The inoculum was collected and filtered through two-layer surgical gauze and kept in thermo pots. Flavonoids (Table 2) plus 600 mg of concentrate (Table 1) and 60 mg of barley straw as the substrate were dosed by triplicate in preheated bottles (39° C.) and maintained under anaerobic conditions. Flavonoids isonaringin, neoeritrocin, poncirin were purchased from INDOFINE Chemical Company, Inc (USA). 10 ml of rumen fluid and 40 ml of incubation medium were added to the bottles (McDougall, El (1948) Studies on ruminant saliva. 1. The composition and output of sheep's saliva. Biochem J. 43(1) 99-109). Once the bottles were filled and the anaerobic condition was applied, the bottles were sealed and the incubation process was started in a hot water bath. […] Each sample was incubated in triplicate in two sets or batches.

[2] = test system: methanogenic (archea) populations; assay: Methane production in "in vitro" rumen fluid culture; type: cell-based, calves; parameters: Average methane production / Accumulated methane production / Methane production / Cumulative methane production: unit not given here; details: Exp 1
Source text: as §1, §2
The effects of flavonoids substances on fermentation activity of certain archea populations which are theoretically responsible for the methane production were analyzed.
The experimental design allows determining whether the effect of flavonoids on methane reduction was derived from a general reduction in microbial activity and biogas production or contrarily flavonoid affects specifically on methanogenic (archea) populations. The presence of flavonoids in the culture medium reduced methane contribution in the total biogas production (P<0.05) although, again, the aforementioned impact was heterogeneous.

[3] = test system: "in vitro" ruminal fluid cultures; assay: Volatile fatty acid concentration and molar proportions in "in vitro" ruminal fluid cultures; type: cell-based, calves
Source text: as §1
(§3) Rumen cannulated calves which received a mixed ration mainly composed of concentrate (90:10) were used as rumen fluid donor; feed composition is presented in Table 1. The inoculum was collected and filtered through two-layer surgical gauze and kept in thermo pots. Flavonoids (Table 2) plus 600 mg of concentrate (Table 1) and 60 mg of barley straw as the substrate were dosed by triplicate in preheated bottles (39° C.) and maintained under anaerobic conditions. Flavonoids isonaringin, neoeritrocin, poncirin were purchased from INDOFINE Chemical Company, Inc (USA). 10 ml of rumen fluid and 40 ml of incubation medium were added to the bottles (McDougall, El (1948) Studies on ruminant saliva. 1. The composition and output of sheep's saliva. Biochem J. 43(1) 99-109). Once the bottles were filled and the anaerobic condition was applied, the bottles were sealed and the incubation process was started in a hot water bath. Pressure readings were made at 2, 4, 6, 8, 12, 24, 36 and 48 hours. Each sample was incubated in triplicate in two sets or batches.
[…] P., 1982 Science des Aliments 2, 131-144), lactate (Taylor, K. A. C. C., 1996. Appl. Biochem. Biotechnol. Enzym. Eng. Biotechnol. 56, 49-58) and ammonia (Chaney, A. L., Marbach, E. P., 1962. Clin. Chem. 8, 130-132) analyses.

[4] = test system: "in vitro" ruminal fluid cultures; assay: Ammonia (N-NH3) concentration in "in vitro" ruminal fluid cultures; type: cell-based, calves
Source text: as §1, §3
(§4) After 12 hours of incubation, one bottle (replicate) from each treatment was opened, pH was recorded and the bottle was sampled for volatile fatty acids (Jouany, J. P., 1982 Science des Aliments 2, 131-144), lactate (Taylor, K. A. C. C., 1996. Appl. Biochem. Biotechnol. Enzym. Eng. Biotechnol. 56, 49-58) and ammonia (Chaney, A. L., Marbach, E. P., 1962. Clin. Chem. 8, 130-132) analyses.

[5] = test system: "in vitro" ruminal fluid culture; assay: Lactate concentration in "in vitro" ruminal fluid culture; type: cell-based, calves; details: 12 hours of incubation
Source text: as §1, §3, §4

ruminal bacteria = assay: Bacterial DNA concentration by qPCR; type: cell-based, calves; details: 12 hours of incubation
Description: as §3, §4
(§5) The environmental DNA was extracted using the technique proposed by Yu and Morrison (2004). Quantification of Streptococcus bovis, Megasphaera elsdenii and Selenomonas ruminantium DNA was done by qPCR using specific primers (Tajima, K. et al. 2001. Appl. Environ. Microb. 67, 2766-2774; Ouwerkerk, D., et al. 2002. J. Appl. Microbiol. 92, 753-758). Results were statistically analyzed using the PROC MIXED procedure of SAS statistical package (SAS, 2000, User's guide: Statistics, version 8 editions inst., Inc., Cary, N.C.). The least significant difference was used to compare the means. Differences between means in which P<0.05 were accepted as significant.

Streptococcus bovis = assay: qPCR relative quantification of Streptococcus bovis; type: cell-based; details: 12 hours of incubation
Description: as §3, §4, §5

Selenomonas ruminantium = assay: qPCR relative quantification of Selenomonas ruminantium; type: cell-based; details: 12 hours of incubation
Description: as §3, §4, §5

Megasphaera elsdenii = assay: qPCR relative quantification of Megasphaera elsdenii; type: cell-based; details: 12 hours of incubation
Description: as §3, §4, §5

[6] = test system: "in vitro" ruminal fluid cultures; assay: Ammonia (N-NH3) concentration in "in vitro" ruminal fluid cultures; type: cell-based, calves; details: 72 h
[7] = average over doses and incubation times

SMILES: COc1ccc([C@@H]2CC(=O)c3c(O)cc(O[C@@H]4O[C@H](CO)[C@@H](O)[C@H](O)[C@H]4O[C@@H]4O[C@@H](C)[C@H](O)[C@@H](O)[C@H]4O)cc3O2)cc1 [Poncirin, poncirin]
- Cumulative biogas production ([1]; 12 h incubation): 180.63
- Cumulative biogas production ([1]; 24 h incubation): 224.90
- Cumulative biogas production ([1]; 48 h incubation): 262.00
- Cumulative biogas production ([1]; 72 h incubation): 284.28
- Average biogas production [1]: 237.95^cde
- Average biogas production ([1]; listed as poncirin): 238
- Biogas production ([1]; dose 1, 0.2 g/kg DM): 234.43
- Biogas production ([1]; dose 2, 0.5 g/kg DM): 241.48
- Accumulated methane production ([2]; 12 h): 19.19
- Proportion of methane in the produced biogas ([2]; 12 h): 10.62
- Accumulated methane production ([2]; 24 h): 24.43
- Proportion of methane in the produced biogas ([2]; 24 h): 11.94
- Accumulated methane production ([2]; 48 h): 30.50
- Proportion of methane in the produced biogas ([2]; 48 h): 16.54
- Accumulated methane production ([2]; 72 h): 34.07
- Proportion of methane in the produced biogas ([2]; 72 h): 16.34
- Average methane production [2, 7]: 27.04^de
- Proportion of methane in the produced biogas [2, 7]: 13.86^cd
- Average methane production ([2]; average over doses and incubation times, listed as poncirin): decreased
- Methane production ([2]; dose 1, 0.2 g/kg DM): 26.61
- Proportion of methane in the produced biogas ([2]; dose 1, 0.2 g/kg DM): 13.92
- Methane production ([2]; dose 2, 0.5 g/kg DM): 27.47
- Proportion of methane in the produced biogas ([2]; dose 2, 0.5 g/kg DM): 13.80
- % Acetate, molar ratio ([3]; 0 h): 62.51 mol/100 mol
- % Butyrate, molar ratio ([3]; 0 h): 9.07 mol/100 mol
- % Propionate, molar ratio ([3]; 0 h): 20.03 mol/100 mol
- A/P rate (acetate/propionate) ([3]; 0 h): 3.12
- VFA concentration ([3]; 0 h (initial constant value)): 13.78 mmol/L
- % Acetate, molar ratio ([3]; 12 h): 55.44 mol/100 mol
- % Butyrate, molar ratio ([3]; 12 h): 9.61 mol/100 mol
- % Propionate, molar ratio ([3]; 12 h): 29.52 mol/100 mol
- A/P rate (acetate/propionate) ([3]; 12 h): 1.88
- VFA concentration ([3]; 12 h): 36.98 mmol/L
- % Acetate, molar ratio ([3]; 72 h): 55.36 mol/100 mol
- % Butyrate, molar ratio ([3]; 72 h): 10.20 mol/100 mol
- % Propionate, molar ratio ([3]; 72 h): 26.96 mol/100 mol
- A/P rate (acetate/propionate) ([3]; 72 h): 2.05
- VFA concentration ([3]; 72 h): 51.87 mmol/L
- % Acetate, molar ratio, average (μ) ([3]; average over incubation times): 57.77 mol/100 mol
- % Butyrate, molar ratio, average (μ) ([3]; average over incubation times): 9.63 ^a mol/100 mol
- % Propionate, molar ratio, average (M) ([3]; average over incubation times): 25.51 ^b mol/100 mol
- VFA concentration, average (μ) ([3]; average over incubation times): 34.21 mmol/L
- % Propionate, molar ratio, average (M) ([3]; average over incubation times, listed as poncirin): improved
- N-NH3 concentration ([4]; 0 h (initial constant value)): 149.99 mg/L
- N-NH3 concentration ([4]; 12 h): 159.33 mg/L
- N-NH3 concentration, average (M) ([4]; average over incubation times): 209.16 mg/L
- Lactate [5]: 87.5 mg/L
- Bacteria DNA (ruminal bacteria): 10.12 ^a μg/ml
- Relative Quantification 2^(ΔΔCt) S. bovis (Streptococcus bovis): 0.44
- Relative Quantification 2^(ΔΔCt) S. ruminantium (Selenomonas ruminantium): 0.68
- Relative Quantification 2^(ΔΔCt) M. elsdenii (Megasphaera elsdenii): 0.98 ^ab
- N-NH3 concentration [6]: 318.15 mg/L
